Data from ChEMBL document CHEMBL4184249, “Structural development of tetrachlorophthalimides as liver X receptor β (LXRβ)-selective agonists with improved aqueous solubility” (Bioorg Med Chem Lett, 2018).
Converted amounts (≈) assume the structure as drawn. The source made the active and inactive calls. The calls are words filed in the database; no cut-off is given here.

Assays:
[1] = molecular target: T1, Oxysterols receptor LXR-beta (Homo sapiens, UniProt P55055); assay: Agonist activity at human LXRbeta expressed in HEK293 cells co-expressing CMX-beta-galactosidase incubated for 16 hrs by luciferase reporter gene assay; format: cell-based
T1 sequence (P55055 whole entry): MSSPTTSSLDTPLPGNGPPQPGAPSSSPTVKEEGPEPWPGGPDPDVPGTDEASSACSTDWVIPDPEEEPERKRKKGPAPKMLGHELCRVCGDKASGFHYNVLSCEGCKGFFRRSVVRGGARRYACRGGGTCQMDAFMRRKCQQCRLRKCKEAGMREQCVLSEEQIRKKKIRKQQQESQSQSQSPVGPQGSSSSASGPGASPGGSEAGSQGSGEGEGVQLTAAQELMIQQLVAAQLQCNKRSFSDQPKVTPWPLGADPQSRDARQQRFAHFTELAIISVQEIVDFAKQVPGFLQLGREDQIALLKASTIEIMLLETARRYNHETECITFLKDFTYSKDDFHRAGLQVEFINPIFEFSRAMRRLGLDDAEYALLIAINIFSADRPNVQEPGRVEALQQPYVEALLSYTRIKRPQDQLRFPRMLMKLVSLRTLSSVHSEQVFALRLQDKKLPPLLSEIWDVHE

[2] = molecular target: T2, Oxysterols receptor LXR-beta (Homo sapiens) (UniProt P55055); assay: Agonist activity at human LXRbeta expressed in HEK293 cells co-expressing CMX-beta-galactosidase incubated for 16 hrs by luciferase reporter gene assay relative to T0901317; format: cell-based
T2 sequence (whole entry): T1 sequence (P55055 whole entry)

[3] = molecular target: T3, Oxysterols receptor LXR-alpha (Homo sapiens) (UniProt Q13133); assay: Agonist activity at human LXRalpha expressed in HEK293 cells co-expressing CMX-beta-galactosidase at 30 uM incubated for 16 hrs by luciferase reporter gene assay; format: cell-based
T3 sequence (whole entry): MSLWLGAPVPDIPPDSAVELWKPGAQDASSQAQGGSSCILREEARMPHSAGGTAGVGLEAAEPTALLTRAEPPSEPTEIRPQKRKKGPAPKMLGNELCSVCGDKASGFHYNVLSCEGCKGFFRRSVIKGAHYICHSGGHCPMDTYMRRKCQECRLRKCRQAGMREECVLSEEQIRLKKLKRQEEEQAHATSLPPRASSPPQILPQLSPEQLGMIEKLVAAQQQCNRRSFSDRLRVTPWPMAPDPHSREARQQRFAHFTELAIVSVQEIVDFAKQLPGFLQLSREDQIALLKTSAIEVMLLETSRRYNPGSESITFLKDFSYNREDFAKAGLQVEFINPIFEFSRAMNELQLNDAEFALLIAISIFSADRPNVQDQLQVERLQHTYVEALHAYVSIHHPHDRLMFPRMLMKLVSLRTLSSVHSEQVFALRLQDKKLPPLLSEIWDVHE

[4] = molecular target: T4, Oxysterols receptor LXR-beta (Mus musculus) (UniProt Q60644); assay: Agonist activity at mouse LXRbeta expressed in HEK293 cells co-expressing CMX-beta-galactosidase incubated for 16 hrs by luciferase reporter gene assay relative to T0901317; format: cell-based
T4 sequence (whole entry): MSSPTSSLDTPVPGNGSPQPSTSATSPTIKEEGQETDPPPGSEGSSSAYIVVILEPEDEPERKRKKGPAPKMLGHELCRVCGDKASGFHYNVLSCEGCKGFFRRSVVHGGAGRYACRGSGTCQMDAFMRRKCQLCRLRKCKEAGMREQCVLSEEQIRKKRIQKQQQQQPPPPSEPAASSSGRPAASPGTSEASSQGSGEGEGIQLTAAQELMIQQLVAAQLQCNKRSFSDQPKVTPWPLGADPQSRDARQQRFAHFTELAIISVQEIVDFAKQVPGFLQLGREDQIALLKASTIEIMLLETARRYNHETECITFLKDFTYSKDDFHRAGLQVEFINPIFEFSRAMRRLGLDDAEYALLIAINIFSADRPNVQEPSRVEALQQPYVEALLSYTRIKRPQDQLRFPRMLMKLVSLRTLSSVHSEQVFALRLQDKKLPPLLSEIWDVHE

[5] = molecular target: T5, Oxysterols receptor LXR-alpha (Mus musculus) (UniProt Q9Z0Y9); assay: Agonist activity at mouse LXRalpha expressed in HEK293 cells co-expressing CMX-beta-galactosidase at 30 uM incubated for 16 hrs by luciferase reporter gene assay; format: cell-based
T5 sequence (whole entry): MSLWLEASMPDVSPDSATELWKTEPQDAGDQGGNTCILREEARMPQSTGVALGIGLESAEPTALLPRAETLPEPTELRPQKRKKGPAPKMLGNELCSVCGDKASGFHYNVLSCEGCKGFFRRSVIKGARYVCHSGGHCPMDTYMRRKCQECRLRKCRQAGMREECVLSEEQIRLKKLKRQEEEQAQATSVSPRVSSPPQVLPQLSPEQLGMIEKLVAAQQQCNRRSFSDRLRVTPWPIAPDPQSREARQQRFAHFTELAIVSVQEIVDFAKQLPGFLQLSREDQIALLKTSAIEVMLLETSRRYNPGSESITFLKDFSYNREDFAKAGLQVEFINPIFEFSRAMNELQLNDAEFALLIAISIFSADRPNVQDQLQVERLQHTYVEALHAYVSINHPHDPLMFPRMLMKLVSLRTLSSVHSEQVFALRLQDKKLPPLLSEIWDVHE

[6] = molecular target: T6, Oxysterols receptor LXR-beta (Mus musculus, UniProt Q60644); assay: Agonist activity at mouse LXRbeta expressed in HEK293 cells co-expressing CMX-beta-galactosidase incubated for 16 hrs by luciferase reporter gene assay; format: cell-based
T6 sequence (Q60644 whole entry): T4 sequence (whole entry)

[7] = Aqueous solubility of the compound in EtOH: 1/15 M phosphate buffer at pH 7.4 1:1 by HPLC method; format: physicochemical
[8] = molecular target: T2, Oxysterols receptor LXR-beta (Homo sapiens); assay: Agonist activity at LXRbeta in human THP1 cells assessed as increase in ABCA1 mRNA expression at 1 uM by real-time quantitative RT-PCR method; format: cell-based
[9] = molecular target: T2, Oxysterols receptor LXR-beta (Homo sapiens); assay: Agonist activity at human LXRbeta expressed in HEK293 cells co-expressing CMX-beta-galactosidase at 30 uM incubated for 16 hrs by luciferase reporter gene assay; format: cell-based
[10] = molecular target: T2, Oxysterols receptor LXR-beta (Homo sapiens); assay: Agonist activity at human LXRbeta expressed in HEK293 cells co-expressing CMX-beta-galactosidase incubated for 16 hrs at 30 uM by luciferase reporter gene assay relative to T0901317; format: cell-based

Row | Structure (SMILES) | EC50 [1] [µM] | Efficacy [2] [%] | Activity [3] | Efficacy [4] [%] | Activity [5] | EC50 [6] [µM] | solubility [7] [ng/mL] | Activity [8] | Activity [9] | Efficacy [10] [%]
1 | O=C1c2c(Cl)c(Cl)c(Cl)c(Cl)c2C(=O)N1c1ccccc1/C=C/c1ccccn1 | 4.77 | 148 | inactive | – | – | – | – | – | – | –
2 | O=C1c2c(Cl)c(Cl)c(Cl)c(Cl)c2C(=O)N1c1ccccc1/C=C/c1ccccc1 | 0.27 | 143 | inactive | 26 | inactive | 0.3 | 3.6 (≈ 7.77 nM) | Active | – | –
3 | O=C1c2c(Cl)c(Cl)c(Cl)c(Cl)c2C(=O)N1c1ccccc1Cc1ccccc1 | 8 | 109 | inactive | – | inactive | – | – | – | – | –
4 | O=C1c2c(Cl)c(Cl)c(Cl)c(Cl)c2C(=O)N1c1ccccc1/C=C/c1ccco1 | 4.67 | 167 | inactive | – | – | – | – | – | – | –
5 | O=C1c2c(Cl)c(Cl)c(Cl)c(Cl)c2C(=O)N1c1ccccc1CCc1ccccc1 | 4.98 | 117 | inactive | – | – | – | – | – | – | –

Next, values leading:

Row | EC50 [1] [µM] | Efficacy [2] [%] | Activity [3] | Efficacy [4] [%] | Activity [5] | EC50 [6] [µM] | solubility [7] [ng/mL] | Activity [8] | Activity [9] | Efficacy [10] [%] | Structure (SMILES)
6 | 0.915 | 133 | inactive | 23 | inactive | 0.82 | – | – | – | – | O=C1c2c(Cl)c(Cl)c(Cl)c(Cl)c2C(=O)N1c1ccccc1/C=C/c1ccsc1
7 | 8.98 | 99 | inactive | – | inactive | – | – | – | – | – | O=C1c2c(Cl)c(Cl)c(Cl)c(Cl)c2C(=O)N1c1ccccc1Oc1ccccc1
8 | 3.61 | 151 | inactive | 22 | inactive | 2.93 | – | – | – | – | O=C1c2c(Cl)c(Cl)c(Cl)c(Cl)c2C(=O)N1c1ccccc1/C=C/c1nccs1
9 | – | – | inactive | – | – | – | – | – | inactive | – | O=C1c2c(Cl)c(Cl)c(Cl)c(Cl)c2C(=O)N1c1cccc2ccccc12
10 | > 10 | – | inactive | – | – | – | – | – | – | 35 | O=C1c2c(Cl)c(Cl)c(Cl)c(Cl)c2C(=O)N1c1ccccc1/C=C/c1ccncc1
11 | > 10 | – | inactive | – | – | – | – | – | – | 104 | O=C1c2c(Cl)c(Cl)c(Cl)c(Cl)c2C(=O)N1c1ccccc1/C=C\c1ccccc1
12 | 4.96 | 141 | inactive | – | – | – | – | – | – | – | O=C1c2c(Cl)c(Cl)c(Cl)c(Cl)c2C(=O)N1c1ccccc1/C=C/c1cccnc1
13 | 1.73 | 153 | inactive | – | – | – | – | – | – | – | O=C1c2c(Cl)c(Cl)c(Cl)c(Cl)c2C(=O)N1c1ccccc1-c1ccccc1
